Measurements from patent publication US9919998B2, “Antibacterial agents: Nα-aroyl-N-aryl-phenylalaninamides” (priority 2014, dated 2018).
In brackets after ≈: the same amount, converted by molar mass. Several values for one entry are separate records, joined by “and”; a condition that tells them apart may be missing. Equal values may be shown once. Read-outs that look alike come from different tables or passages of the source.

Legend:
[1] = test system: rifampin-resistant mutants, derivatives of M. smegmatis ATCC19420; assay: MICs in rifampin-resistant mutants (cross-resistance levels); type: cell-based, Mycobacterium smegmatis
Excerpt: (§1) MICs in Mycobacterium smegmatis ATCC 19420 and Mycobacterium smegmatis ATCC 19420 derivatives were quantified using broth microdilution assays as described [Clinical and Laboratory Standards Institute (CLSI/NCCLS) (2009) Methods for Dilution Antimicrobial Susceptibility Tests for Bacteria That Grow Aerobically; Approved Standard, Eighth Edition. CLIS Document M07-A8 (CLIS, Wayne Pa.)].

[2] = test system: Mycobacterium tuberculosis H37Rv; assay: Microplate Alamar Blue assay (MABA) MIC, M. tuberculosis; type: cell-based
Excerpt: (§2) Minimal inhibitory concentrations (MICs) in Mycobacterium tuberculosis H37Rv and Mycobacterium avium ATCC 25291 were quantified using microplate Alamar Blue assays as described (MABA; [Collins, L. & Franzblau, S. (1997) Microplate Alamar Blue assay versus BACTEC 460 system for high-throughput screening of compounds against Mycobacterium tuberculosis and Mycobacterium avium. Antimicrob. Agents Chemother. 41, 1004-1009]).

[3] = test system: Mycobacterium smegmatis ATCC 19420; assay: Spontaneous resistance rate, fluctuation assays; type: cell-based; conditions: 96 h fluctuation assays, M. smegmatis ATCC19420
Experimental: Resistance rates were determined using fluctuation assays [Luria, S., Delbrück, M. (1943) Genetics 28, 491-511.]. […] (at least 3 independent determinations for each concentration of each test compound). Resistance rates and 95% confidence intervals were calculated using the Ma-Sandri-Sarkar Maximum Likelihood Estimator (MSS-MLE [Ma, W., Sandri, GvH., Sarkar, S. (1992.) J. Appl. Probab. 29, 255-267; Sarkar, S., Ma, W., Sandri, GvH. (1992) Genetica 85, 173-179]) as implemented on the Fluctuation Analysis Calculator (FALCOR; www.keshavsingh.org/protocols/FALCOR.html [Hall, B., Ma, C., Liang, P., Singh, K (2009) Bioinformatics 25, 1564-1565]). Sampling correction was performed as in [Stewart, F., Gordon, D., Levin, B. (1990) Genetics 124, 175-185; Jones, M. (1993) Mutat. Res. 292, 187-189].

[4] = test system: Mycobacterium smegmatis ATCC 19420; assay: Broth microdilution MIC, M. smegmatis; type: cell-based; conditions: Mycolicibacterium smegmatis
Excerpt: as §1

[5] = molecular target: Mycobacterium tuberculosis RNA polymerase (Mycobacterium tuberculosis, UniProt P9WGY7+P9WGY9); assay: Run-off transcription assay with Mycobacterium tuberculosis RNA polymerase (radiochemical); type: biochemical
Experimental: Run-off transcription assays with Mycobacterium tuberculosis RNA polymerase were performed using reaction mixtures containing (10 μl): 0-100 μM test compound, 75 nM Mycobacterium tuberculosis RNA polymerase core enzyme, 300 nM Mycobacterium tuberculosis σ^A, 20 nM 130 bp DNA fragment containing positions −100 to −1 of the bacteriophage […] N25 promoter followed by positions +1 to +30 of the lacUV5-15 promoter of [Mukhopadhyay, J., Kapanidis, A., Mekler, V., Kortkhonjia, E., Ebright, Y., Ebright, R. (2001) Cell 106, 453-463], 25 nM [alpha-^32P]UTP (600 Bq/pmol) for an initial 2 min at 37° C. and 100 μM [alpha-^32P]UTP (6 Bq/pmol) for a subsequent 5 min at 37° C., 100 μM ATP, 100 μM GTP, 100 μM UTP, 100 μM CTP, 40 mM Tris-HCl, pH 8.0, 80 mM NaCl, 5 mM MgCl2, 2.5 mM DTT, and 12.7% glycerol. Reactions were terminated by addition of […] 80% formamide, 10 mM EDTA, 0.04% bromophenol blue, and 0.04% xylene cyanol, followed by heating for 5 min at 90° C. Reaction products were resolved by 15% urea-PAGE, and quantified using a storage-phosphor scanner.

[6] = test system: AAP1-resistant mutants, derivatives of M. smegmatis ATCC19420; assay: MICs in AAP1-resistant mutants (resistance and cross-resistance levels); type: cell-based, Mycobacterium smegmatis; conditions: for cross-resistance of AAP1-resistant mutants to the compound: MICs in AAP1-resistant mutants
[7] = molecular target: Escherichia coli RNA polymerase (Escherichia coli, UniProt P0A8T7+P0A8V2); assay: Analogous run-off transcription assay with Escherichia coli RNA polymerase; type: biochemical; conditions: run-off transcription assays with Escherichia coli RNA polymerase; read-out: IC50 for inhibition of Escherichia coli RNA polymerase
[8] = test system: Vero E6 ATCC CRL1586 cells; assay: Mammalian-cell cytotoxicity, minimal cytotoxic concentration (CellTiter96); type: cell-based
Experimental: Minimal cytotoxic concentrations (MCCs) against mammalian cells in culture were determined using Vero E6 ATCC CRL1586 cells and the CellTiter96 assay kit (Promega, Inc.). […]

[9] = test system: Mycobacterium avium ATCC 25291; assay: Microplate Alamar Blue assay (MABA) MIC, M. avium; type: cell-based; conditions: ATCC25291, M. avium ATCC 25291
Excerpt: as §2

[10] = test system: Mycobacterium smegmatis, Mycobacterium tuberculosis, and Mycobacterium avium; assay: organism not typed; type: cell-based; conditions: read-out: MICs, inhibition of mycobacterial growth
[11] = Inhibition of mycobacterial RNA polymerase (IC50s), radiochemical transcription assays, M. tuberculosis RNA polymerase
[12] = read-out: MIC Mycobacterium tuberculosis H37Rv
[13] = ATCC19420, M. smegmatis ATCC 19420, read-out: MIC Mycobacterium smegmatis ATCC 19420
[14] = IC50 Mycobacterium tuberculosis RNA polymerase

Sequence of Mycobacterium tuberculosis RNA polymerase (P9WGZ1 whole entry, the tested form may be a part): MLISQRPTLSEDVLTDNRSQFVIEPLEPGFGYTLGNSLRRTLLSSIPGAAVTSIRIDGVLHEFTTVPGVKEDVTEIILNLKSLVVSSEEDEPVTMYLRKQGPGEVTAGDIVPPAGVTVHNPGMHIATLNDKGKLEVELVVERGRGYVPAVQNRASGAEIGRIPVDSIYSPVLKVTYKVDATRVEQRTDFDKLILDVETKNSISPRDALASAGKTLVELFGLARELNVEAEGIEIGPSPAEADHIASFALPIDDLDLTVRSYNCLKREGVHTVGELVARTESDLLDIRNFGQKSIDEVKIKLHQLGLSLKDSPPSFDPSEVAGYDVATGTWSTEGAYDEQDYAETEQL
Sequence of Mycobacterium tuberculosis RNA polymerase (P9WGY5 whole entry, further chain, the tested form may be a part): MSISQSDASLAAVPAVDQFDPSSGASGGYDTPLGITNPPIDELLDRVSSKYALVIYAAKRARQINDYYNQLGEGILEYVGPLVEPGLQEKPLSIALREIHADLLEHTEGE
Sequence of Mycobacterium tuberculosis RNA polymerase (P9WGY9 whole entry, the tested form may be a part): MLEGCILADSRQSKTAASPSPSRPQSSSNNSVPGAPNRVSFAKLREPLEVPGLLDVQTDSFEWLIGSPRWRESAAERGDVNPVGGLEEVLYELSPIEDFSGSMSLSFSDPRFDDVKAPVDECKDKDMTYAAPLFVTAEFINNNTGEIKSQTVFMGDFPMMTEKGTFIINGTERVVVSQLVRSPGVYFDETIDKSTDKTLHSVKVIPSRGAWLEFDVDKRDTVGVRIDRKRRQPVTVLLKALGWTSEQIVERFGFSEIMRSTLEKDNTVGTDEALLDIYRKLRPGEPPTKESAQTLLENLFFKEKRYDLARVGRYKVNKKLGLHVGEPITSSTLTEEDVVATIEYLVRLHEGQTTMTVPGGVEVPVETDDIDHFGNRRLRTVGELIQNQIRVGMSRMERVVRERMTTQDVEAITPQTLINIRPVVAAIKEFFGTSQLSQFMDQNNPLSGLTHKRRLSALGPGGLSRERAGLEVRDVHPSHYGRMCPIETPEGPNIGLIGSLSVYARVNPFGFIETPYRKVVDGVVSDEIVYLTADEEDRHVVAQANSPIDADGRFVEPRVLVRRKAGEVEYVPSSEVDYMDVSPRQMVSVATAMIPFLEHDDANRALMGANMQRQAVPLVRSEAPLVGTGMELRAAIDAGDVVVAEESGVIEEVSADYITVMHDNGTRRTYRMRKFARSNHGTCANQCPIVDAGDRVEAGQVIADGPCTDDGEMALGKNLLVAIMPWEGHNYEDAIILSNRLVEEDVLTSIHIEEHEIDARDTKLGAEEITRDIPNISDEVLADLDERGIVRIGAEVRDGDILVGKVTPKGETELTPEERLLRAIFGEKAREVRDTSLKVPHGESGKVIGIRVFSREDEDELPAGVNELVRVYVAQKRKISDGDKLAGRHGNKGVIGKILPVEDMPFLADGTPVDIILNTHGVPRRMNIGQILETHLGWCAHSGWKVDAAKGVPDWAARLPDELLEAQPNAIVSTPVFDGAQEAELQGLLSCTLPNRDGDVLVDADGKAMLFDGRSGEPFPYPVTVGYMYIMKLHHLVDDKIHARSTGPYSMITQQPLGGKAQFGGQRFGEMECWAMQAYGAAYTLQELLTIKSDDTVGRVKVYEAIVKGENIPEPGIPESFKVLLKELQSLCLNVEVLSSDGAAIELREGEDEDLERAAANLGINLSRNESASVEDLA
Sequence of Mycobacterium tuberculosis RNA polymerase (P9WGI1 whole entry, further chain, the tested form may be a part): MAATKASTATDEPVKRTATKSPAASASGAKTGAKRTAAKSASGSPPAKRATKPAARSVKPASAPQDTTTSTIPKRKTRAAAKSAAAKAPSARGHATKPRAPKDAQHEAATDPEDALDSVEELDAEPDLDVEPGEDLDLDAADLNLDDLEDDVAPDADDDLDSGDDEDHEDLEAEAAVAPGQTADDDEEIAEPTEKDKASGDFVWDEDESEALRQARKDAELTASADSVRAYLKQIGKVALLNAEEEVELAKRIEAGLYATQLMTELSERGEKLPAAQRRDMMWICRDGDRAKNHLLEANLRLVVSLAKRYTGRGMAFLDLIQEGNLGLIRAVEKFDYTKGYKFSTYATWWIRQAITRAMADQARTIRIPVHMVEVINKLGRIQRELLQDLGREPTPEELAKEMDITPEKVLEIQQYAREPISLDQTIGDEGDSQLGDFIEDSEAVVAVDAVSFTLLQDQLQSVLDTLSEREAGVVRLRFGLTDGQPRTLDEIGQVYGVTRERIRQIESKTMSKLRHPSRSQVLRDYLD
Sequence of Mycobacterium tuberculosis RNA polymerase (P9WGY7 whole entry, the tested form may be a part): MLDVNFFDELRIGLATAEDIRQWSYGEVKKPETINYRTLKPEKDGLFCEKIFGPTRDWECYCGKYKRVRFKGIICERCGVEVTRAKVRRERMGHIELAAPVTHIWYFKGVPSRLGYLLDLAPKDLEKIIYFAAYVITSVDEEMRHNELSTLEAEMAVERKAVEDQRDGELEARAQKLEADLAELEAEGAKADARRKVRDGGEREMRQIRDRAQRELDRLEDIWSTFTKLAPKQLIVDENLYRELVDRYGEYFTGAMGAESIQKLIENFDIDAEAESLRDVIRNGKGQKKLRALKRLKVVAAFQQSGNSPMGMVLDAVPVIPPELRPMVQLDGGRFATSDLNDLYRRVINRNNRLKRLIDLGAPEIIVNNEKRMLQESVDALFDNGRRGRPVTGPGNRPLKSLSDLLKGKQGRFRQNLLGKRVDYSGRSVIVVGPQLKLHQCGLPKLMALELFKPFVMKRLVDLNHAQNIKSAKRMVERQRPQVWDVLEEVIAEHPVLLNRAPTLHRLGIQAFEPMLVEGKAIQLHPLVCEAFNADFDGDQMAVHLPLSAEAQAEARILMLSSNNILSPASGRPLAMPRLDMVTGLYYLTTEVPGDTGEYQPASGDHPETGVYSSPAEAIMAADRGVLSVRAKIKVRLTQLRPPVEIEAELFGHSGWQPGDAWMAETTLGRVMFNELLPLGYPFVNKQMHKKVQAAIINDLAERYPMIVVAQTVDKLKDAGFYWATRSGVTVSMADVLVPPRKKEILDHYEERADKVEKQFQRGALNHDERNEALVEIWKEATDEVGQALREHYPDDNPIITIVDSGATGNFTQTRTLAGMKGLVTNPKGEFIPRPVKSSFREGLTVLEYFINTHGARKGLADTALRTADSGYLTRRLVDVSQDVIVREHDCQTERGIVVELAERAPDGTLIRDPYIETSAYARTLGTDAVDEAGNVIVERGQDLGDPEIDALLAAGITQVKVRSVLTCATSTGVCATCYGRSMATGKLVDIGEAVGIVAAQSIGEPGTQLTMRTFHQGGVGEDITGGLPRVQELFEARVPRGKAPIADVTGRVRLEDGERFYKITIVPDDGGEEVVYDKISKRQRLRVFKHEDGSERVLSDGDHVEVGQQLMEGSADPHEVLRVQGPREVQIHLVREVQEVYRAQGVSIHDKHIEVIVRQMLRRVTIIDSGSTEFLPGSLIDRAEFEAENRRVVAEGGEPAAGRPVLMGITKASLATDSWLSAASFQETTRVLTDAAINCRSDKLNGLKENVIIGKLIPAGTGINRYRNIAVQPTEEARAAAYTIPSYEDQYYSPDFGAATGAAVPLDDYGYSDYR

Row | SMILES | cross-resistance of rifampin-resistant mutants to the compound [1] | hypersensitivity of rifampin-resistant mutants to the compound [1] | MIC ([2]; MABA-MIC assays, read-out: Inhibition of mycobacterial growth in culture (MICs)) [µg/mL] | spontaneous resistance rate at 2xMIC ([3]; 2xMIC) | spontaneous resistance rate at 4xMIC ([3]; 4xMIC) | spontaneous resistance rate at 8xMIC ([3]; 8xMIC) | MIC ([4]; ATCC19420, broth microdilution assays, M. smegmatis ATCC19420, read-out: Inhibition of mycobacterial growth in culture (MICs)) [µg/mL] | MIC ([4]; ATCC19420, read-out: MIC with wild-type rpoB and wild-type rpoC, M. smegmatis ATCC19420 wild type, reference for AAP1-resistant mutants) [µg/mL] | IC50 [5, 11] | resistance of tested AAP1-resistant mutants ([6]; all tested AAP1-resistant mutants) [fold] | IC50 [7] [nM] | MIC [2, 12] [µg/mL] | MCC mammalian cells Vero E6 ATCC CRL1586 [8] [µg/mL] | MIC [4, 13] [µg/mL] | IC50 [5, 14] [nM] | solubility (physchem) [µM] | MIC [9] [µg/mL] | cross-resistance of AAP1-resistant mutants to the compound [6] | MIC [10] [µg/mL]
1 | Cc1ccccc1NC(=O)C(Cc1ccccc1)NC(=O)c1ccccc1 (racemic) [AAP1, Nα-benzoyl-N-(2-methylphenyl)-D/L-phenylalaninamide] | No rifampin-resistant mutant was found to exhibit cross-resistance | One rifampin-resistant mutant was found to be hypersensitive | 6.25 (≈ 17.4 µM) | 5 × 10^−9/generation | 4 × 10^−9/generation | 5 × 10^−9/generation | 0.39 (≈ 1.09 µM) | 0.78 (≈ 2.18 µM) | 680 nM | > 60 | – | – | – | – | – | – | – | – | –
2 | O=C(NC(Cc1ccccc1)C(=O)Nc1cccc2[nH]ncc12)c1ccccc1 (centres unmarked) [IX-37, N-(1-((1H-indazol-4-yl)amino)-1-oxo-3-phenylpropan-2-yl)benzamide] | No rifampin-resistant mutant was found to exhibit cross-resistance | – | – | – | – | – | – | – | – | – | 10000 | 12.5 (≈ 32.5 µM) | 55 | 0.195 (≈ 0.507 µM) | 3300 | > 10 | 12.5 (≈ 32.5 µM) | cross-resistance | –
3 | O=C(NC(Cc1ccccc1)C(=O)Nc1cc(F)ccc1N1CCNCC1)c1cccs1 (centres unmarked) [IX-216, N-(1-((5-fluoro-2-(piperazin-1-yl)phenyl)amino)-1-oxo-3-phenylpropan-2-yl)thiophene-2-carboxamide] | No rifampin-resistant mutant was found to exhibit cross-resistance | – | – | – | – | – | – | – | – | – | – | 1.56 (≈ 3.45 µM) | 11 | 0.097 (≈ 0.214 µM) | 280 | – | 0.78 (≈ 1.72 µM) | cross-resistance | –
4 | O=C(N[C@H](Cc1ccccc1)C(=O)Nc1cc(F)ccc1N1CCNCC1)c1ccccc1F [IX-214a, (R)-2-fluoro-N-(1-((5-fluoro-2-(piperazin-1-yl)phenyl)amino)-1-oxo-3-phenylpropan-2-yl)benzamide] | – | – | – | – | – | – | – | – | – | – | – | 0.78 (≈ 1.68 µM) | – | 0.073 (≈ 0.157 µM) | – | – | < 0.195 | – | ≥ 0.073
5 | Cc1ccccc1C(=O)NC(Cc1ccccc1)C(=O)Nc1cc(Cl)ccc1N1CCNCC1 (centres unmarked) [IX-275, N-(1-((5-chloro-2-(piperazin-1-yl)phenyl)amino)-1-oxo-3-phenyl-propan-2-yl)-2-methylbenzamide] | – | – | – | – | – | – | – | – | – | – | – | 1.56 (≈ 3.27 µM) | 12.5 | 0.39 (≈ 0.818 µM) | 100 | – | 0.78 (≈ 1.64 µM) | cross-resistance | –
6 | Cc1ccccc1C(=O)NC(Cc1ccccc1)C(=O)Nc1cc(F)ccc1N1CCNCC1 (centres unmarked) [IX-215, N-(1-((5-fluoro-2-(piperazin-1-yl)phenyl)amino)-1-oxo-3-phenylpropan-2-yl)-2-methylbenzamide] | No rifampin-resistant mutant was found to exhibit cross-resistance | – | – | – | – | – | – | – | – | – | – | 1.56 (≈ 3.39 µM) | 7 | 0.19 (≈ 0.413 µM) | 140 | – | 0.78 (≈ 1.69 µM) | cross-resistance | –
7 | O=C(N[C@H](Cc1ccccc1)C(=O)Nc1cc(Cl)ccc1N1CCNCC1)c1ccccc1F [IX-274a, (R)—N-(1-((5-chloro-2-(piperazin-1-yl)phenyl)amino)-1-oxo-3-phenylpropan-2-yl)-2-fluorobenzamide] | – | – | – | – | – | – | – | – | ≥ 10 nM and 10 to 74 nM | – | – | 0.78 (≈ 1.62 µM) | – | 0.073 (≈ 0.152 µM) | 17 | – | 0.39 (≈ 0.811 µM) | – | ≥ 0.073
8 | O=C(NC(Cc1ccccc1)C(=O)Nc1cc(F)ccc1N1CCNCC1)c1ccccc1F (racemic) [IX-214, 2-fluoro-N-(1-((5-fluoro-2-(piperazin-1-yl)phenyl)amino)-1-oxo-3-phenylpropan-2-yl)benzamide] | No rifampin-resistant mutant was found to exhibit cross-resistance | – | – | – | – | – | – | – | – | – | – | 1.56 (≈ 3.36 µM) | 7 | 0.195 (≈ 0.42 µM) | – | – | 1.56 (≈ 3.36 µM) | cross-resistance | ≥ 0.073
